Three compounds from patent publication US20010004460A1, “PROCESS FOR THE PREPARATION OF RICE SEED FOR SOWING” (priority 1995, published 2001) can be followed below.

Data set [1] concerns rice seeds. The settings on record: in vivo. As to the method:
Seed was tested for germination in an incubator and also flown onto a flooded field under standard agricultural practices.

Data set [2] relates to rice seeds. Description: Seedling growth of pregerminated rice seed coated with gibberellic acid, sown by plane in flooded field.
Data set [3] deals with rice seeds. Description: Stand establishment of pregerminated rice seed treated with mancozeb slurry, flown onto flooded fields. In kind it is in vivo. The settings on record: slurry at 19-22 fluid ounces per hundred pounds of seed.

Take `N#Cc1nn(-c2c(Cl)cc(C(F)(F)F)cc2Cl)c(N)c1[S+]([O-])C(F)(F)F` (stereo not drawn) [fipronil, 5-amino-1-(2,6-dichloro-4-trifluoromethylphenyl)-4-trifluoromethylsulfinyl-3-cyanopyrazole]: in the data set with rice seeds [1], the “appearance of pregerminated seeds after machine mixing” value is reported as “appeared undamaged” and the stand establishment result was “the same as untreated seed”.
As for `C=C1C[C@]23C[C@@]1(O)CC[C@H]2[C@@]12C=C[C@H](O)[C@@](C)(C(=O)O1)[C@H]2[C@@H]3C(=O)O` [gibberellic acid], in the data set on rice seeds [2] (3 to 10 days after sowing), the “size of root relative to shoot” value is given as “approximately the same size”. The “resistance of seedlings to wind” value in the data set with rice seeds [2] (3 to 10 days after sowing, located in the soil at a depth of 0 to 2 mm) is “highly resistant to wind”. Further, the “appearance of germinated seeds after machine mixing” value in the data set with rice seeds [2] ([…], radicles 1 to 8 mm) was “appeared undamaged”.
Consider “[[1,2-ethanediylbis[carbamodithioato]](2-)]manganese mixture with [[1,2-ethanediylbis [carbamodithioato]](2—)]zinc [mancozeb]”, for which the “stand of rice plants established” value with rice seeds [3] is on record as “acceptable stand”.
